Like-named read-outs stand apart in the source and are kept apart here.
Experiments:
S. aureus Fab I [1] = biological target: T1, S. aureus Fab I (Staphylococcus aureus, UniProt Q6GI75); assay: Inhibition of non his tagged (native) Fab I by saturated fatty acyl CoA's, NADH consumption at 340 nm; assay type: biochemical; settings: read-out: Mean IC50 (uM) (n = 2), 1 mM crotonoyl CoA and 1 mM NADH, 100 mM NaADA, pH 6.5
T1 construct: made in house; host or cells: E. coli
T1 sequence (Q6GI75 1-256): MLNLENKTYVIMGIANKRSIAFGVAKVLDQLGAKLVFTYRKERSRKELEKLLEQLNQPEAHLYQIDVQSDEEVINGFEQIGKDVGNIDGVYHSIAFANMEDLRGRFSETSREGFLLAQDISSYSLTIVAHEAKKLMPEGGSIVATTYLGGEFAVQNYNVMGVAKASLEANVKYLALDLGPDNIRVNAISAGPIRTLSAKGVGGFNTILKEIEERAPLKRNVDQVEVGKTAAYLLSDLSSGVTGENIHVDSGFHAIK
Description: (§1) Crotonoyl CoA was used as the substrate for Fab I and all activity measurements were based on a decrease in absorbance at 340 nm due to the utilization of NADH (FIG. 1). All assays were performed with 100 mM NaADA, pH 6.5 buffer. Acyl-CoA inhibition data was performed in the presence of 1 mM crotonoyl CoA and 1 mM NADH.

S. aureus Fab I [2] = biological target: T1, S. aureus Fab I; assay: Kinetic characterization of native S. aureus Fab I (substrates, mode of inhibition); assay type: biochemical
Description: as §1
(§2) However, studies performed at pH 6.0-7.0 with the native enzyme illustrated a sequential mechanistic pattern and kinetic parameters resulting from these studies indicated no overt change in either magnitude or kinetic mechanism. Thus the His10 tagged Fab I behaved distinctly from native Fab I enzyme.

E. coli Fab I [3] = biological target: T2, E. coli Fab I (Escherichia coli, UniProt P0AEK4); assay: Kinetic constants of E. coli Fab I for its substrates; assay type: biochemical
T2 sequence (P0AEK4 whole entry): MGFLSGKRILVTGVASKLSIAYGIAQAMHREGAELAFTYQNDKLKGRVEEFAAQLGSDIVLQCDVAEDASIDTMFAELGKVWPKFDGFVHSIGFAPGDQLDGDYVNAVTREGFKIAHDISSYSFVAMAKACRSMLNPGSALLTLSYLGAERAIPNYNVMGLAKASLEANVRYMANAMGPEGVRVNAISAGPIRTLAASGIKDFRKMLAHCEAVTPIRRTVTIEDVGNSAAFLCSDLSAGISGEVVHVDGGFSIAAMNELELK
Text: A diazaborine derivative may be used as a positive control, this should be readily available via a 2 step synthesis with publicly available starting materials using methods known in the art. Test compounds may be added to this assay to determine whether they agonize or antagonize enzymatic activity.

E. coli Fab I [4] = biological target: T2, E. coli Fab I; settings: cited from earlier work
[5] = substrate: C/C=C/C(=O)SCCNC(=O)CCNC(=O)[C@H](O)C(C)(C)COP(=O)(O)OP(=O)(O)OC[C@H]1O[C@@H](n2cnc3c(N)ncnc32)[C@H](O)[C@@H]1OP(=O)(O)O; assay: Kinetic characterization of native S. aureus Fab I (substrates, mode of inhibition); assay type: biochemical, Staphylococcus aureus; settings: other: S. aureus Fab I
Description: as §1, §2

Molecule: CC(=O)SCCNC(=O)CCNC(=O)[C@H](O)C(C)(C)COP(=O)(O)OP(=O)(O)OC[C@H]1O[C@@H](n2cnc3c(N)ncnc32)[C@H](O)[C@@H]1OP(=O)(O)O [Acetyl]
- IC50 (S. aureus Fab I [1]): > 1000 µM

Molecule: CCCCCCCCCC(=O)SCCNC(=O)CCNC(=O)C(O)C(C)(C)COP(=O)(O)OP(=O)(O)OC[C@H]1O[C@@H](n2cnc3c(N)ncnc32)[C@H](O)[C@@H]1OP(=O)(O)O (stereo partly drawn) [n-Decanoyl]
- IC50 (S. aureus Fab I [1]): 226 µM

Molecule: CCCC(=O)SCCNC(=O)CCNC(=O)[C@H](O)C(C)(C)COP(=O)(O)OP(=O)(O)OC[C@H]1O[C@@H](n2cnc3c(N)ncnc32)[C@H](O)[C@@H]1OP(=O)(O)O [n-Butyryl]
- IC50 (S. aureus Fab I [1]): > 1000 µM

Molecule: CCCCCC(=O)SCCNC(=O)CCNC(=O)C(O)C(C)(C)COP(=O)(O)OP(=O)(O)OC[C@H]1O[C@@H](n2cnc3c(N)ncnc32)[C@H](O)[C@@H]1OP(=O)(O)O (stereo partly drawn) [n-Hexanoyl]
- IC50 (S. aureus Fab I [1]): 576 µM

Molecule: NC(=O)C1=CN([C@@H]2O[C@H](COP(=O)(O)OP(=O)(O)OC[C@H]3O[C@@H](n4cnc5c(N)ncnc54)[C@H](O)[C@@H]3O)[C@@H](O)[C@H]2O)C=CC1 [NADH]
- Kmapp for NADH relative to NADPH (S. aureus Fab I [2]; S. aureus Fab I): approximately 30 fold
- Km (S. aureus Fab I [2]; S. aureus Fab I, read-out: Km for NADH): ~410 µM
- KNADH (S. aureus Fab I [2]; native S. aureus Fab I): 0.7 mM
- KiNADH (S. aureus Fab I [2]; native S. aureus Fab I): 0.2 mM
- KNADH (E. coli Fab I [3]): 0.01 mM
- Km (E. coli Fab I [3]; read-out: Km for NADH): 13 µM

Molecule: Apo-ACP: apo acyl carrier protein, inhibitor of Fab I
- Mode of inhibition versus NADH (S. aureus Fab I [2]; S. aureus Fab I): uncompetitive
- Mode of inhibition versus crotonoyl CoA (S. aureus Fab I [2]; S. aureus Fab I): competitive

Molecule: CCCCCCCCCCCCCC(=O)SCCNC(=O)CCNC(=O)[C@H](O)C(C)(C)COP(=O)(O)OP(=O)(O)OC[C@H]1O[C@@H](n2cnc3c(N)ncnc32)[C@H](O)[C@@H]1OP(=O)(O)O [Myristoyl]
- IC50 (S. aureus Fab I [1]): 23.1 µM

Molecule: CCCCCCCC(=O)SCCNC(=O)CCNC(=O)C(O)C(C)(C)COP(=O)(O)OP(=O)(O)OC[C@H]1O[C@@H](n2cnc3c(N)ncnc32)[C@H](O)[C@@H]1OP(=O)(O)O (stereo partly drawn) [n-Octanoyl]
- IC50 (S. aureus Fab I [1]): 248 µM

Molecule: C/C=C/C(=O)SCCNC(=O)CCNC(=O)[C@H](O)C(C)(C)COP(=O)(O)OP(=O)(O)OC[C@H]1O[C@@H](n2cnc3c(N)ncnc32)[C@H](O)[C@@H]1OP(=O)(O)O [CCA, crotonoyl CoA]
- KCCA (E. coli Fab I [4]; E. coli Fab I, Bergler et al 1994): 2.7 mM
- Km (E. coli Fab I [4]; substrate of FAB I activity assay (Bergler et al 1994)): 2700 µM
- KCCA (S. aureus Fab I [2]; native S. aureus Fab I): 2.5 mM

B1: S. aureus Fab I (Staphylococcus aureus subsp. aureus MRSA252) (protein)
chain: MLNLENKTYVIMGIANKRSIAFGVAKVLDQLGAKLVFTYRKERSRKELEKLLEQLNQPEAHLYQIDVQSDEEVINGFEQIGKDVGNIDGVYHSIAFANMEDLRGRFSETSREGFLLAQDISSYSLTIVAHEAKKLMPEGGSIVATTYLGGEFAVQNYNVMGVAKASLEANVKYLALDLGPDNIRVNAISAGPIRTLSAKGVGGFNTILKEIEERAPLKRNVDQVEVGKTAAYLLSDLSSGVTGENIHVDSGFHAIK
notes: made in house; host or cells: E. coli
- Km [5]: 2500 µM
